Patent US20240000950A1, “THERAPEUTIC CURE-PRO COMPOUNDS FOR TARGETED DEGRADATION OF BET DOMAIN PROTEINS, AND METHODS OF MAKING AND USING THEM” (CORNELL UNIVERSITY, priority 2020, published 2024)

Molecular target: BRD4 (Homo sapiens, UniProt O60885)
Assay: Summary of E3 ligase directed degradation of BRD4, estimated from Western Blot or WES (Tables 1-6)
Type: cell-based
Parameters: endogenous in cells; host or cells: HeLa, MCF7 or HCT116
Conditions: for Degradation of BRD4, combination with CRBN ligand [drawing 397] / Degradation of BRD4, combination with CRBN ligand [drawing 421] / Degradation of BRD4, combination with CRBN ligand [drawing 422]: Table 1; for Degradation of BRD4, combination with CRBN ligand [drawing 397]: aromatic 1,2-diol- or hindered cis-1,2-diol-containing CRBN ligand drawn as drawing 397 (by the text apparently 8046); for Degradation of BRD4, combination with CRBN ligand [drawing 421]: CRBN ligand drawn as drawing 421 (by the text apparently 8047); for Degradation of BRD4, combination with CRBN ligand [drawing 422]: CRBN ligand drawn as drawing 422 (by the text apparently 8066); for Degradation of BRD4, combination with VHL ligand [drawing 442]: Table 3, aromatic 1,2-diol-containing VHL ligand drawn as drawing 442 (by the text apparently 8305); for Degradation of BRD4, combination with CRBN ligand [drawing 457]: aryl-boronic acid-containing CRBN ligand drawn as drawing 457 (by the text apparently 8048)
Protocol: HeLa, MCF7, or HCT116 cells (2.5-3×10^6) were treated for 24 hours with the indicated compounds solubilized in DMSO. The cells were washed in ice-cold PBS and were then lysed in RIPA lysis buffer (150 mM NaCl, 5 mM EDTA, 1% NP-40, 0.5% sodium deoxycholate, 0.1% SDS, 50 mM Tris, pH 8.0) with Roche protease inhibitor complete cocktail and phosphatase inhibitors (10 mM sodium fluoride, 10 mM sodium pyrophosphate, 1 mM sodium orthovanadate and 20 mM β-glycerophosphate). The total protein concentrations were determined by Bradford Protein Assay and 10-20 μg of protein was loaded onto 4-15% Tris-Glycine gradient gels (Biorad). After standard gel electrophoresis, the separated proteins were transferred to PVDF membrane by wet transfer. The immunoblots were then blocked for 1 hour in 5% skim milk in TBST or 5% BSA in TBST, according to manufacturer's instructions, before an overnight incubation at 4° C. with indicated antibodies and membranes. Membranes were then incubated with the appropriate horseradish peroxidase-conjugated secondary antibodies (1:5,000 dilution) for 1 h at room temperature and the bands were visualized using the Clarity Max Western ECL Substrate (Biorad) and the ChemiDoc Imaging System (Biorad). Signal was detected with ECL Western Blotting Substrate (Pierce) and X-ray film processed with a Konica SRX-101 X-ray film processor or captured by Bio-Rad's Chemidoc Imaging system.
WES Simple analysis was performed on WES system (ProteinSimple-Biotechne) according to the manufacturer's instructions. Total protein concentrations of cell lysates were determined by the Pierce BCA kit (Thermo Fisher). 3 μL of 0.3 μg/uL of the protein lysate was loaded onto a 12- to 230-kDa WES assay plate (ProteinSimple) where 300 nL sample was withdrawn through a capillary, subjected to electrophoretic separation of proteins by size, and followed by the simultaneous, HRP-based detection of proteins using the Anti-Rabbit Detection Module (Proteinsimple: #DM-001). The electropherograms were checked then the automatic peak detection was manually corrected if it was required.
A black check mark indicates efficacy of 30% to 70% or higher protein degradation.

| SMILES | Degradation of BRD4, combination with CRBN ligand [drawing 457] (Table 4) | other results |
| --- | --- | --- |
| CCNC(=O)C[C@@H]1N=C(c2ccc(Cl)cc2)c2cc(OCCOCCNC(=O)c3ccc(B(O)O)cc3)ccc2-n2c(C)nnc21 [BRD-E39] |  | Degradation of BRD4, combination with CRBN ligand [drawing 397]: ✓ (A black check mark indicates efficacy of 30% to 70% or higher protein degradation) |
| CCNC(=O)C[C@@H]1N=C(c2ccc(Cl)cc2)c2cc(OCCOCCOCCNC(=O)c3cccc(B(O)O)c3)ccc2-n2c(C)nnc21 [BRD-E42] |  | Degradation of BRD4, combination with CRBN ligand [drawing 421]: ✓ (A black check mark indicates efficacy of 30% to 70% or higher protein degradation) |
| CCNC(=O)C[C@@H]1N=C(c2ccc(Cl)cc2)c2cc(OCCOCCOCCOCCNC(=O)c3ccc(B(O)O)cc3)ccc2-n2c(C)nnc21 [BRD-E43] |  | Degradation of BRD4, combination with CRBN ligand [drawing 421]: ✓ (A black check mark indicates efficacy of 30% to 70% or higher protein degradation); Degradation of BRD4, combination with CRBN ligand [drawing 422]: ✓ (A black check mark indicates efficacy of 30% to 70% or higher protein degradation) |
| COc1ccc2c(c1)C(c1ccc(Cl)cc1)=N[C@@H](CC(=O)NCCOCCOCCNC(=O)c1ccc(B(O)O)cc1)c1nnc(C)n1-2 [BRD-E45] |  | Degradation of BRD4, combination with CRBN ligand [drawing 422]: ✓ (A black check mark indicates efficacy of 30% to 70% or higher protein degradation); Degradation of BRD4, combination with VHL ligand [drawing 442]: ✓ (A black check mark indicates efficacy of 30% to 70% or higher protein degradation) |
| CCNC(=O)C[C@@H]1N=C(c2ccc(SCc3ccc(B(O)O)cc3)cc2)c2cc(OC)ccc2-n2c(C)nnc21 [BRD-E54] |  | Degradation of BRD4, combination with VHL ligand [drawing 442]: ✓ (A black check mark indicates efficacy of 30% to 70% or higher protein degradation) |
| COc1ccc2c(c1)C(c1ccc(Cl)cc1)=N[C@@H](CC(=O)Nc1ccc(B(O)O)cc1)c1nnc(C)n1-2 [BRD-E74, (4-(2-((4S)-6-(4-chlorophenyl)-8-methoxy-1-methyl-4H-benzo[f][1,2,4]triazolo[4,3-a][1,4]diazepin-4-yl)acetamido)phenyl)boronic acid] |  | Degradation of BRD4, combination with CRBN ligand [drawing 397]: ✓ (A black check mark indicates efficacy of 30% to 70% or higher protein degradation); Degradation of BRD4, combination with MDM2 ligand [drawing 431] (Table 2, aromatic 1,2-diol-containing MDM2 ligand drawn as drawing 431 (by the text apparently 8314)): ✓ (A black check mark indicates efficacy of 30% to 70% or higher protein degradation) |
| COc1ccc2c(c1)C(c1ccc(Cl)cc1)=N[C@@H](CC(=O)NCCNC(=O)c1ccc(O)c(O)c1)c1nnc(C)n1-2 [BRD-N01] | ✓ (A black check mark indicates efficacy of 30% to 70% or higher protein degradation) |  |
| COc1ccc2c(c1)C(c1ccc(Cl)cc1)=N[C@@H](CC(=O)NCCCCNC(=O)c1ccc(O)c(O)c1)c1nnc(C)n1-2 [BRD-N05] | ✓ (A black check mark indicates efficacy of 30% to 70% or higher protein degradation) |  |
| COc1ccc2c(c1)C(c1ccc(Cl)cc1)=N[C@@H](CC(=O)NCCCCNC(=O)c1cccc(O)c1O)c1nnc(C)n1-2 [BRD-N06] | ✓ (A black check mark indicates efficacy of 30% to 70% or higher protein degradation) |  |
| CCNC(=O)C[C@@H]1N=C(c2ccc(Cl)cc2)c2cc(OCCCCC(=O)Nc3ccc(O)c(O)c3)ccc2-n2c(C)nnc21 [BRD-N22, 5-(((4S)-6-(4-chlorophenyl)-4-(2-(ethylamino)-2-oxoethyl)-1-methyl-4H-benzo[f][1,2,4]triazolo[4,3-a][1,4]diazepin-8-yl)oxy)-N-(3,4-dihydroxyphenyl)pentanamide] | ✓ (A black check mark indicates efficacy of 30% to 70% or higher protein degradation) |  |
| COc1ccc2c(c1)C(c1ccc(Cl)cc1)=N[C@@H](CC(=O)NCCNC(=O)Cc1ccc(O)c(O)c1)c1nnc(C)n1-2 [BRD-N30] | ✓ (A black check mark indicates efficacy of 30% to 70% or higher protein degradation) |  |
| CCNC(=O)C[C@@H]1N=C(c2ccc(Cl)cc2)c2cc(OCCOCCNC(=O)c3ccc(O)c(O)c3)ccc2-n2c(C)nnc21 [BRD-N38, N-(2-(2-(((4S)-6-(4-chlorophenyl)-4-(2-(ethylamino)-2-oxoethyl)-1-methyl-4H-benzo[f][1,2,4]triazolo[4,3-a][1,4]diazepin-8-yl)oxy)ethoxy)ethyl)-3,4-dihydroxybenzamide] | ✓ (A black check mark indicates efficacy of 30% to 70% or higher protein degradation) |  |
| CCNC(=O)C[C@@H]1N=C(c2ccc(Cl)cc2)c2cc(OCCOCCOCCNC(=O)c3ccc(O)c(O)c3)ccc2-n2c(C)nnc21 [BRD-N40] |  | Degradation of BRD4, combination with VHL ligand [drawing 465] (Table 6, aryl-boronic acid-containing VHL ligand drawn as drawing 465): ✓ (A black check mark indicates efficacy of 30% to 70% or higher protein degradation) |
| COc1ccc2c(c1)C(c1ccc(Cl)cc1)=N[C@@H](CC(=O)NCCOCCOCCOCCNC(=O)c1ccc(O)c(O)c1)c1nnc(C)n1-2 [BRD-N44] | ✓ (A black check mark indicates efficacy of 30% to 70% or higher protein degradation) |  |
| CCNC(=O)C[C@@H]1N=C(c2ccc(Cl)cc2)c2cc(-c3ccc4cc(O)c(O)cc4c3)ccc2-n2c(C)nnc21 [BRD-N67] | ✓ (A black check mark indicates efficacy of 30% to 70% or higher protein degradation) | Degradation of BRD4, combination with CRBN ligand [drawing 458] (Table 4, aryl-boronic acid-containing CRBN ligand drawn as drawing 458 (by the text apparently 8049)): ✓ (A black check mark indicates efficacy of 30% to 70% or higher protein degradation) |
| COc1ccc2c(c1)C(c1ccc(Cl)cc1)=N[C@@H](CC(=O)Nc1ccc(O)c(O)c1)c1nnc(C)n1-2 [BRD-N68] | ✓ (A black check mark indicates efficacy of 30% to 70% or higher protein degradation) |  |
| COc1ccc2c(c1)C(c1ccc(Cl)cc1)=N[C@@H](CC(=O)NCCOCCOCCOCCOCCNC(=O)c1ccc(O)c(O)c1)c1nnc(C)n1-2 [BRD-N69] | ✓ (A black check mark indicates efficacy of 30% to 70% or higher protein degradation) |  |
| CCNC(=O)C[C@@H]1N=C(c2ccc(Cl)cc2)c2cc(OCCOCCOCCOCCOCCOCCNC(=O)c3ccc(O)c(O)c3)ccc2-n2c(C)nnc21 [BRD-N70, N-(17-(((4S)-6-(4-chlorophenyl)-4-(2-(ethylamino)-2-oxoethyl)-1-methyl-4H-benzo[f][1,2,4]triazolo[4,3-a][1,4]diazepin-8-yl)oxy)-3,6,9,12,15-pentaoxaheptadecyl)-3,4-dihydroxybenzamide] | ✓ (A black check mark indicates efficacy of 30% to 70% or higher protein degradation) |  |
| CCNC(=O)C[C@@H]1N=C(c2ccc(Cl)cc2)c2cc(OCCOCCOCCOCCOCCOCCNC(=O)c3cccc(O)c3O)ccc2-n2c(C)nnc21 [BRD-N71, N-(17-(((4S)-6-(4-chlorophenyl)-4-(2-(ethylamino)-2-oxoethyl)-1-methyl-4H-benzo[f][1,2,4]triazolo[4,3-a][1,4]diazepin-8-yl)oxy)-3,6,9,12,15-pentaoxaheptadecyl)-2,3-dihydroxybenzamide] | ✓ (A black check mark indicates efficacy of 30% to 70% or higher protein degradation) | Degradation of BRD4, combination with MDM2 ligand [drawing 464] (Table 5, aryl-boronic acid-containing MDM2 ligand drawn as drawing 464 (apparently 8312)): ✓ (A black check mark indicates efficacy of 30% to 70% or higher protein degradation) |
